According to patent publication US10231954B2, “Neurodegenerative therapies” (LYTIX BIOPHARMA AS, priority 2014, dated 2019):
Like-named read-outs stand apart in the source and are kept apart here.

Assays:
Type in all cases: biochemical
[1] = target: MNK2 (Homo sapiens, UniProt Q9HBH9); assay: Kinase profiling MNK2; details: for remaining activity at 100 µM: read-out: residual kinase activity, MNK2
From the text: (§1) Any value less that 25 is considered to be highly significant inhibition.

[2] = target: PIM2 (Homo sapiens, UniProt Q9P1W9); assay: Kinase profiling PIM2; details: for remaining activity at 100 µM: read-out: residual kinase activity, PIM2
Chain of PIM2 (Q9P1W9 whole entry, species assumed): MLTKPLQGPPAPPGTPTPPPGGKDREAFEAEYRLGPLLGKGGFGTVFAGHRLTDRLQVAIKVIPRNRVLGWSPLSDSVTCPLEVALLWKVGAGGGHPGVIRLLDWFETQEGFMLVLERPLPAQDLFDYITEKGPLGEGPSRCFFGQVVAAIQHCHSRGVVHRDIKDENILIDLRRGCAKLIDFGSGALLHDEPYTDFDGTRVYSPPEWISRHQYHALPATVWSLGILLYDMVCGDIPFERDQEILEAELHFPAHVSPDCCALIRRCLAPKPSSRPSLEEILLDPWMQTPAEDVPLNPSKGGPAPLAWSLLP
From the text: as §1

[3] = target: MST4 (Homo sapiens, UniProt Q9P289); assay: Kinase profiling MST4; details: for remaining activity at 100 µM: read-out: residual kinase activity, MST4
Chain of MST4 (Q9P289 whole entry, species assumed): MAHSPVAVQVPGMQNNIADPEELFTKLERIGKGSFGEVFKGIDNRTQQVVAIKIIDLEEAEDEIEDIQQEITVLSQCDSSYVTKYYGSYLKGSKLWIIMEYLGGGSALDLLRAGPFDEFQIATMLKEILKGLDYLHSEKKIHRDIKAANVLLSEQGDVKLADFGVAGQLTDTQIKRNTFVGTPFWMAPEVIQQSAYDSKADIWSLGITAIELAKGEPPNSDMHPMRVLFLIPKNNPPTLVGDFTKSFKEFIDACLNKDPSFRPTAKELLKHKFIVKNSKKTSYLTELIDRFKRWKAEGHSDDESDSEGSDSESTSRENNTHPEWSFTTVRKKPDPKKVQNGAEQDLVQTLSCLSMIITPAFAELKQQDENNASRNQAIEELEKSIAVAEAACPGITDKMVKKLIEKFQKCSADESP
From the text: as §1

[4] = target: T1, EPH-B3 (Homo sapiens, UniProt P54753); assay: Kinase profiling EPH-B3; details: for remaining activity at 100 µM: read-out: residual kinase activity, EPH-B3
T1 sequence (P54753 34-998): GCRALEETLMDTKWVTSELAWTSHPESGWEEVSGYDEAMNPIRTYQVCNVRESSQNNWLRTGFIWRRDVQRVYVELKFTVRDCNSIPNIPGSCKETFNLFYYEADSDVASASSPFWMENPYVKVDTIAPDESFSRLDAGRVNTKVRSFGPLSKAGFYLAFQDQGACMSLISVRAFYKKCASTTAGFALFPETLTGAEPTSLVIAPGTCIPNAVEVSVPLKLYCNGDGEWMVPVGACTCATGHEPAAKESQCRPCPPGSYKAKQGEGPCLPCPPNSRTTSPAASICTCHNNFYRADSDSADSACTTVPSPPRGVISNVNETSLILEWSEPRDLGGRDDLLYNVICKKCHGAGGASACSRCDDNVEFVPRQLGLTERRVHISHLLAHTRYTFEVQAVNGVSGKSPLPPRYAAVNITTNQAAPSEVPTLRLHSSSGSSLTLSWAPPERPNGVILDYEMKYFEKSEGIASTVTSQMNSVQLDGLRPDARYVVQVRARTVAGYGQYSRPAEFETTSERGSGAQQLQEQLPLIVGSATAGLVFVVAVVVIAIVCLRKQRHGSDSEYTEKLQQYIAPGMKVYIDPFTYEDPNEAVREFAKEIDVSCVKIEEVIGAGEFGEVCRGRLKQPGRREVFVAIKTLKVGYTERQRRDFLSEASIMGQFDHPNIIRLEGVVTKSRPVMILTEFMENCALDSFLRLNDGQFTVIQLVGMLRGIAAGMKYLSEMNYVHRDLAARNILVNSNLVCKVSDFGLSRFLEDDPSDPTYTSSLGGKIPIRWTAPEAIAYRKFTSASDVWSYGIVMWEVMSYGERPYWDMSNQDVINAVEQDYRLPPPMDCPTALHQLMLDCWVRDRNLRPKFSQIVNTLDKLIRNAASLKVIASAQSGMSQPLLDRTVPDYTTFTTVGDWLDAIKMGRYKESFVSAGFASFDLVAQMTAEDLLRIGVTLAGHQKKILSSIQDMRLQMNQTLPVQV
From the text: as §1

[5] = target: T2, EPH-B4 (Homo sapiens, UniProt P54760); assay: Kinase profiling EPH-B4; details: for remaining activity at 100 µM: read-out: residual kinase activity, EPH-B4
T2 sequence (P54760 16-987): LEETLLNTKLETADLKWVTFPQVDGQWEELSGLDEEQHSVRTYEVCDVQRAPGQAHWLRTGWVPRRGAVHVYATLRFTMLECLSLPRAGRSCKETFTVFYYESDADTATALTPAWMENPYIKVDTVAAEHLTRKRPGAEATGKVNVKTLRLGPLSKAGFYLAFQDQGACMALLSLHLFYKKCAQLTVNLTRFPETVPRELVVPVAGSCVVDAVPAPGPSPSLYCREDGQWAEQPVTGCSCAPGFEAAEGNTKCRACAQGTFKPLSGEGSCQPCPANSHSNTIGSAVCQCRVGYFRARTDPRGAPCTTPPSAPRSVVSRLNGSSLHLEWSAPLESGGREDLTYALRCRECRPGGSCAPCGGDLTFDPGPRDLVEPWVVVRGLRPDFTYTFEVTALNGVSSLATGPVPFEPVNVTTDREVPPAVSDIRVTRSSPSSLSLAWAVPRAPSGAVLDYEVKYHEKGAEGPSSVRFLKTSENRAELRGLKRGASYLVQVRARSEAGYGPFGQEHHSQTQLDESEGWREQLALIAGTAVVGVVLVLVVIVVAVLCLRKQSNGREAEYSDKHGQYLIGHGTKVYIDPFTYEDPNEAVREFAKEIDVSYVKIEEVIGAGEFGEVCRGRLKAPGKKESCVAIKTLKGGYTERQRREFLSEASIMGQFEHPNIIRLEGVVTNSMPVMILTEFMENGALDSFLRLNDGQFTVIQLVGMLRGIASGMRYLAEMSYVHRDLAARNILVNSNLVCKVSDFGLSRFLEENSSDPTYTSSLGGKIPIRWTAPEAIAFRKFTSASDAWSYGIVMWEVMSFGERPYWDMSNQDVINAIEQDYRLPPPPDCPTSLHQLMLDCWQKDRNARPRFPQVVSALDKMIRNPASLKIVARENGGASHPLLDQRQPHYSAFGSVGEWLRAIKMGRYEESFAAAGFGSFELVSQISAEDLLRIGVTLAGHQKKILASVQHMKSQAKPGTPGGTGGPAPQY
From the text: as §1

[6] = 100 micromolar inhibitor concentration, 100 is no change
[7] = 100 micromolar inhibitor, 100 = no change

Chain of MNK2 (Q9HBH9 whole entry, species assumed): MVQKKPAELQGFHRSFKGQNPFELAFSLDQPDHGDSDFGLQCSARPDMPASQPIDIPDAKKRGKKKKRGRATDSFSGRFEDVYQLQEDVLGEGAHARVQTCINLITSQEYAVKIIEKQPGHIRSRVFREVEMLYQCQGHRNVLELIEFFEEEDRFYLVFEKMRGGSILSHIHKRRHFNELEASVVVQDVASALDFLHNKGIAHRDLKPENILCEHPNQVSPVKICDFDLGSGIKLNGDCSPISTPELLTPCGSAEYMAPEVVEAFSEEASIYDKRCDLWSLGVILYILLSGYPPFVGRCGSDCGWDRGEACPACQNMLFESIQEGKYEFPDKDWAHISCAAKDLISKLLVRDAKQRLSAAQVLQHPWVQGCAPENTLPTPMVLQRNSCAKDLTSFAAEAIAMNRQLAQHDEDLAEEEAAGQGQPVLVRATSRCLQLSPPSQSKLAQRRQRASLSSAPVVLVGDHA

SMILES | remaining activity at 100 µM [1, 6] | remaining activity at 100 µM [2, 6] | remaining activity at 100 µM [3, 6] | remaining activity at 100 µM [4, 6] | remaining activity at 100 µM [5, 6] | residual kinase activity, MNK2 [1, 6] | residual kinase activity, PIM2 [2, 6] | residual kinase activity, MST4 [3, 6] | residual kinase activity, EPH-B3 [4, 6] | residual kinase activity, EPH-B4 [5, 6] | also measured
CC(=O)Nc1nc2cc(O)ccc2s1 [Compound 01-66, N-(5-hydroxybenzo[d]thiazol-2-yl)acetamide] | – | – | – | – | – | – | – | – | – | – | remaining activity at 100 µM [1]: 33%; remaining activity at 100 µM [2]: 16%; remaining activity at 100 µM [3]: 84%; remaining activity at 100 µM [4]: 83%; remaining activity at 100 µM [5]: 83%
CC(=O)Nc1nc2ccc(O)cc2s1 [Compound 01-71] | 34% | 38% | 70% | 66% | 98% | – | – | – | – | – | –
CC(=O)Nc1nc2ccc(C(F)(F)F)cc2s1 [Compound 01-90] | 71% | 94% | 89% | 89% | 55% | – | – | – | – | – | –
CC(=O)Nc1nc2ccc(C#N)cc2s1 [Compound 01-94] | 50% | 73% | 75% | 72% | 62% | – | – | – | – | – | –
CC(=O)Nc1cccc(NC(=O)c2nc3ccc(O)cc3s2)c1 [Compound 03-07, N-(3-acetamidophenyl)-6-hydroxybenzo[d]thiazole-2-carboxamide] | – | – | – | – | – | – | – | – | – | – | remaining activity at 100 µM [1, 7]: 50%; remaining activity at 100 µM [2, 7]: 61%; remaining activity at 100 µM [3, 7]: 76%; remaining activity at 100 µM [4, 7]: 64%; remaining activity at 100 µM [5, 7]: 100%
O=C(Nc1nc2cc(O)ccc2s1)c1ccncc1 [Compound 03-11] | – | – | – | – | – | 75 | 89 | 134 | 76 | 97 | –
O=C(Nc1nc2ccc(O)cc2s1)c1ccccn1 [Compound 03-12] | – | – | – | – | – | 66 | 75 | 80 | 63 | 84 | –
O=C(Nc1nc2cc(O)ccc2s1)c1ccccn1 [Compound 03-13] | – | – | – | – | – | 66 | 77 | 76 | 44 | 88 | –
COc1ccc2sc(NC(C)=O)nc2c1 [Compound 03-21] | 84% | 48% | 88% | 106% | 98% | – | – | – | – | – | –
CC(=O)Nc1nc2ccccc2s1 [Compound 03-32] | – | – | – | – | – | 91 | 100 | 110 | 71 | 99 | –
O=C(Nc1nc2cc(O)ccc2s1)c1cccnc1 [Compound 03-33] | – | – | – | – | – | 36 | 69 | 103 | 108 | 106 | –
O=C(Nc1nc2ccc(O)cc2s1)c1ccccc1 [Compound 03-60] | – | – | – | – | – | 25 | 67 | 71 | 93 | 110 | –
CC(=O)Nc1nc2cc(C(F)(F)F)ccc2s1 [Compound 03-73] | 96% | 63% | 91% | 114% | 101% | – | – | – | – | – | –
CC(=O)Nc1nc2cc(C)ccc2s1 [Compound 03-76] | – | – | – | – | – | 81 | 82 | 103 | 107 | 109 | –
CC(=O)Nc1nc2cc(F)ccc2s1 [Compound 03-77] | 86% | 62% | 88% | 113% | 112% | – | – | – | – | – | –
O=C(Nc1nc2ccc(O)cc2s1)c1ccncc1 [Compound 08-42] | – | – | – | – | – | 33 | 90 | 79 | 88 | 92 | –
O=C(Nc1nc2ccc(O)cc2s1)c1cccnc1 [Compound 08-44] | – | – | – | – | – | 36 | 76 | 80 | 65 | 100 | –
